Test system: BAT1 gene-overexpressing plant
Experiment: Restoring of hypocotyl height of BAT1 gene-overexpressing plant by brassinosteroid in the medium
Type: in vivo, Arabidopsis thaliana
Conditions: brassinosteroid added at 0.3 μM or 3 μM to 0.5x B5 medium, measured after 7 days (FIG. 5A)
Experimental: The wild type and the BAT1 gene-overexpressing plant were vertically grown in a greenhouse whose temperature was regulated at about 23° C. under a long-day condition having a 24-hour period of 16-hour light condition/8-hour dark condition in 0.5× B5 media. A hypocotyl of the vertical-grown plant was distinctively shown in the BAT1 gene-overexpressing plant. Various brassinosteroids were treated at various concentrations, and a height of the hypocotyl was measured after 7 days. As the brassinosteroid, brassinolide (BL), castasterone (CS), teasterone (TE), or typhasterol (TY) was added at a concentration of 0.3 μM or 3 μM to the medium.

Compound | length (height) of hypocotyl
CC(C)[C@H](C)[C@@H](O)[C@H](O)[C@@H](C)[C@H]1CC[C@H]2[C@@H]3COC(=O)[C@H]4C[C@H](O)[C@H](O)C[C@]4(C)[C@H]3CC[C@]12C [brassinolide] | significantly increased
CC(C)[C@H](C)[C@@H](O)[C@H](O)[C@@H](C)[C@H]1CC[C@H]2[C@@H]3CC(=O)[C@H]4C[C@H](O)[C@H](O)C[C@]4(C)[C@H]3CC[C@]12C [castasterone] | significantly increased
CC(C)[C@H](C)[C@@H](O)[C@H](O)[C@@H](C)[C@H]1CC[C@H]2[C@@H]3CC(=O)[C@H]4C[C@H](O)CC[C@]4(C)[C@H]3CC[C@]12C [typhasterol] | significantly increased
